pIC50: −log10 of the molar value. Like-named read-outs stand apart in the source and are kept apart here.
Molecular target: hQC (Homo sapiens, UniProt Q16769)
Test: Inhibitor assay for glutaminyl cyclase activity (fluorometric, H-Gln-βNA / H-Gln-AMC)
Format: biochemical
How it was run: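 Coupled fluorometric assay at 30 °C with pyroglutamyl aminopeptidase, in Tris/HCl pH 8.0 with EDTA, substrate H-Gln-βNA (0.2 mM; ex/em 320/410 nm) or H-Gln-AMC (ex/em 380/460 nm), initiated by QC. Screening: 4 mM inhibitor, substrate at 1 KM; Ki from progress curves fitted to competitive inhibition.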

[1] = compound from preparative synthesis, purified, read-out: IC50 hQC

hQC, sequence (Q16769 29-361): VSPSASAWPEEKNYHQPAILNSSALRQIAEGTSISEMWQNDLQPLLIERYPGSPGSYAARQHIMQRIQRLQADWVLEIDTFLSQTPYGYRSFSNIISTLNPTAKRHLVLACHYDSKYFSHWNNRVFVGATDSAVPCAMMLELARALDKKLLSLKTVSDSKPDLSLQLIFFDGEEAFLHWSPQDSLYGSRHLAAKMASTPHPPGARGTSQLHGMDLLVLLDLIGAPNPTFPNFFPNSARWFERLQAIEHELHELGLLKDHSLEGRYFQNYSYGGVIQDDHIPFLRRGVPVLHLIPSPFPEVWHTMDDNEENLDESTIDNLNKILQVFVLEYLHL

CCC1C(c2ccccc2)=C(O)C(=O)N1CCCn1ccnc1 (stereo not shown) [Compound 108, 5-Ethyl-3-hydroxy-1-(3-imidazol-1-yl-propyl)-4-phenyl-1,5-dihydro-pyrrol-2-one]
pIC50 (read-out: IC50): 6.40

O=C1C(O)=C(c2ccccc2)C(c2cccc(Cl)c2)N1CCCn1ccnc1 (stereo not shown) [Compound 109, 5-(3-Chloro-phenyl)-3-hydroxy-1-(3-imidazol-1-yl-propyl)-4-phenyl-1,5-dihydro-pyrrol-2-one]
pIC50 (read-out: IC50): 6.40

O=C1C(O)=C(c2ccccc2)C(c2ccccc2F)N1CCCn1ccnc1 (stereo not shown) [Compound 110, 5-(2-Fluoro-phenyl)-3-hydroxy-1-(3-imidazol-1-yl-propyl)-4-phenyl-1,5-dihydro-pyrrol-2-one]
pIC50 [1]: 6.13
pIC50 (read-out: IC50): 7.40

O=C1C(O)=C(c2ccccc2)C(c2ccc(O)cc2)N1CCCn1ccnc1 (stereo not shown) [Compound 111, 3-Hydroxy-5-(4-hydroxy-phenyl)-1-(3-imidazol-1-yl-propyl)-4-phenyl-1,5-dihydro-pyrrol-2-one]
pIC50 (read-out: IC50): 6.40

O=C1C(O)=C(c2ccccc2)C(c2cccc(O)c2)N1CCCn1ccnc1 (stereo not shown) [Compound 112, 3-Hydroxy-5-(3-hydroxy-phenyl)-1-(3-imidazol-1-yl-propyl)-4-phenyl-1,5-dihydro-pyrrol-2-one]
pIC50 [1]: 5.71
pIC50 (read-out: IC50): 6.40

O=C1C(O)=C(c2c[nH]c3ccccc23)C(c2cc(Cl)cc(Cl)c2O)N1CCCn1ccnc1 (stereo not shown) [Compound 113, 5-(3,5-Dichloro-2-hydroxy-phenyl)-3-hydroxy-1-(3-imidazol-1-yl-propyl)-4-(1H-indol-3-yl)-1,5-dihydro-pyrrol-2-one]
pIC50 (read-out: IC50): 5.89

Cc1ccc(C2C(c3c[nH]c4ccccc34)=C(O)C(=O)N2CCCn2ccnc2)cc1 (stereo not shown) [Compound 114, 3-Hydroxy-1-(3-imidazol-1-yl-propyl)-4-(1H-indol-3-yl)-5-p-tolyl-1,5-dihydro-pyrrol-2-one]
pIC50 [1]: 6.58
pIC50 (read-out: IC50): 7.40

CCCC1C(c2c[nH]c3ccccc23)=C(O)C(=O)N1CCCn1ccnc1 (stereo not shown) [Compound 115, 3-Hydroxy-1-(3-imidazol-1-yl-propyl)-4-(1H-indol-3-yl)-5-propyl-1,5-dihydro-pyrrol-2-one]
pIC50 (read-out: IC50): 6.40

O=C1C(O)=C(c2c[nH]c3ccccc23)C(c2cc[nH]n2)N1CCCn1ccnc1 (stereo not shown) [Compound 116, 3-Hydroxy-1-(3-imidazol-1-yl-propyl)-4-(1H-indol-3-yl)-5-(1H-pyrazol-3-yl)-1,5-dihydro-pyrrol-2-one]
pIC50 (read-out: IC50): 6.40

O=C1C(O)=C(c2c[nH]c3ccccc23)C(C(O)CO)N1CCCn1ccnc1 (stereo not shown) [Compound 117, 5-(1,2-Dihydroxy-ethyl)-3-hydroxy-1-(3-imidazol-1-yl-propyl)-4-(1H-indol-3-yl)-1,5-dihydro-pyrrol-2-one]
pIC50 (read-out: IC50): 6.40

CC(C)/C=C/C1C(c2c[nH]c3ccccc23)=C(O)C(=O)N1CCCn1ccnc1 (stereo not shown) [Compound 118, 3-Hydroxy-1-(3-imidazol-1-yl-propyl)-4-(1H-indol-3-yl)-5-(3-methyl-but-1-enyl)-1,5-dihydro-pyrrol-2-one]
pIC50 (read-out: IC50): 5.89

Cc1ccc(C2C(c3c[nH]c4ccccc34)=C(O)C(=O)N2CCCn2ccnc2)o1 (stereo not shown) [Compound 119, 3-Hydroxy-1-(3-imidazol-1-yl-propyl)-4-(1H-indol-3-yl)-5-(5-methyl-furan-2-yl)-1,5-dihydro-pyrrol-2-one]
pIC50 (read-out: IC50): 6.40

O=C1C(O)=C(c2c[nH]c3ccccc23)C(c2ccc3[nH]ccc3c2)N1CCCn1ccnc1 (stereo not shown) [Compound 120, 3-Hydroxy-1-(3-imidazol-1-yl-propyl)-5-(1H-indol-5-yl)-4-(1H-indol-3-yl)-1,5-dihydro-pyrrol-2-one]
pIC50 (read-out: IC50): 7.40

COc1ccc(C2C(c3c[nH]c4ccccc34)=C(O)C(=O)N2CCCn2ccnc2)cc1 (stereo not shown) [Compound 121, 3-Hydroxy-1-(3-imidazol-1-yl-propyl)-4-(1H-indol-3-yl)-5-(4-methoxy-phenyl)-1,5-dihydro-pyrrol-2-one]
pIC50 (read-out: IC50): 7.40

O=C1C(O)=C(c2c[nH]c3ccccc23)C(c2ccccc2O)N1CCCn1ccnc1 (stereo not shown) [Compound 122, 3-Hydroxy-5-(2-hydroxy-phenyl)-1-(3-imidazol-1-yl-propyl)-4-(1H-indol-3-yl)-1,5-dihydro-pyrrol-2-one]
pIC50 (read-out: IC50): 7.40

Cc1ccc(C2C(c3c[nH]c4ccccc34)=C(O)C(=O)N2CCCn2ccnc2)cc1C (stereo not shown) [Compound 123, 5-(3,4-Dimethyl-phenyl)-3-hydroxy-1-(3-imidazol-1-yl-propyl)-4-(1H-indol-3-yl)-1,5-dihydro-pyrrol-2-one]
pIC50 [1]: 6.25
pIC50 (read-out: IC50): 7.40

CCCCCC1C(c2c[nH]c3ccccc23)=C(O)C(=O)N1CCCn1ccnc1 (stereo not shown) [Compound 124, 3-Hydroxy-1-(3-imidazol-1-yl-propyl)-4-(1H-indol-3-yl)-5-pentyl-1,5-dihydro-pyrrol-2-one]
pIC50 (read-out: IC50): 6.40

CC1C(c2c[nH]c3ccccc23)=C(O)C(=O)N1CCCn1ccnc1 (stereo not shown) [Compound 125, 3-Hydroxy-1-(3-imidazol-1-yl-propyl)-4-(1H-indol-3-yl)-5-methyl-1,5-dihydro-pyrrol-2-one]
pIC50 (read-out: IC50): 6.40

O=C1C(O)=C(c2c[nH]c3ccccc23)C(c2ccc(CO)o2)N1CCCn1ccnc1 (stereo not shown) [Compound 126, 3-Hydroxy-5-(5-hydroxymethyl-furan-2-yl)-1-(3-imidazol-1-yl-propyl)-4-(1H-indol-3-yl)-1,5-dihydro-pyrrol-2-one]
pIC50 (read-out: IC50): 6.40

O=C1C(O)=C(c2c[nH]c3ccccc23)C(c2ccccc2)N1CCCn1ccnc1 (stereo not shown) [Compound 127, 3-Hydroxy-1-(3-imidazol-1-yl-propyl)-4-(1H-indol-3-yl)-5-phenyl-1,5-dihydro-pyrrol-2-one]
pIC50 [1]: 6.36
pIC50 (read-out: IC50): 7.40

O=C1C(O)=C(c2c[nH]c3ccccc23)C(C2CCC=CO2)N1CCCn1ccnc1 (stereo not shown) [Compound 128, 5-(3,4-Dihydro-2H-pyran-2-yl)-3-hydroxy-1-(3-imidazol-1-yl-propyl)-4-(1H-indol-3-yl)-1,5-dihydro-pyrrol-2-one]
pIC50 [1]: 6.09
pIC50 (read-out: IC50): 7.40

O=C1C(O)=C(c2c[nH]c3ccccc23)C(C2=CCCCC2)N1CCCn1ccnc1 (stereo not shown) [Compound 129, 5-Cyclohex-1-enyl-3-hydroxy-1-(3-imidazol-1-yl-propyl)-4-(1H-indol-3-yl)-1,5-dihydro-pyrrol-2-one]
pIC50 (read-out: IC50): 6.40

Cc1ccc2c(C3C(c4c[nH]c5ccccc45)=C(O)C(=O)N3CCCn3ccnc3)c[nH]c2c1 (stereo not shown) [Compound 130, 3-Hydroxy-1-(3-imidazol-1-yl-propyl)-4-(1H-indol-3-yl)-5-(6-methyl-1H-indol-3-yl)-1,5-dihydro-pyrrol-2-one]
pIC50 (read-out: IC50): 5.89

O=C1C(O)=C(c2c[nH]c3ccccc23)C(C(F)(F)F)N1CCCn1ccnc1 (stereo not shown) [Compound 131, 3-Hydroxy-1-(3-imidazol-1-yl-propyl)-4-(1H-indol-3-yl)-5-trifluoromethyl-1,5-dihydro-pyrrol-2-one]
pIC50 (read-out: IC50): 5.89

O=C1C(O)=C(c2c[nH]c3ccccc23)C(c2c[nH]c3ccccc23)N1CCCn1ccnc1 (stereo not shown) [Compound 132, 3-Hydroxy-1-(3-imidazol-1-yl-propyl)-4,5-bis-(1H-indol-3-yl)-1,5-dihydro-pyrrol-2-one]
pIC50 (read-out: IC50): 6.40

O=C1C(O)=C(c2c[nH]c3ccccc23)C(c2ncc[nH]2)N1CCCn1ccnc1 (stereo not shown) [Compound 133, 3-Hydroxy-5-(1H-imidazol-2-yl)-1-(3-imidazol-1-yl-propyl)-4-(1H-indol-3-yl)-1,5-dihydro-pyrrol-2-one]
pIC50 (read-out: IC50): 5.89

O=C1C(O)=C(c2c[nH]c3ccccc23)C(Cc2ccccc2)N1CCCn1ccnc1 (stereo not shown) [Compound 134, 5-Benzyl-3-hydroxy-1-(3-imidazol-1-yl-propyl)-4-(1H-indol-3-yl)-l 5-dihydro-pyrrol-2-one]
pIC50 (read-out: IC50): 6.40

O=C1C(O)=C(c2c[nH]c3ccccc23)C(c2ccccn2)N1CCCn1ccnc1 (stereo not shown) [Compound 135, 3-Hydroxy-1-(3-imidazol-1-yl-propyl)-4-(1H-indol-3-yl)-5-pyridin-2-yl-1,5-dihydro-pyrrol-2-one]
pIC50 (read-out: IC50): 7.40

O=C1C(O)=C(c2c[nH]c3ccccc23)C(c2ccncc2)N1CCCn1ccnc1 (stereo not shown) [Compound 136, 3-Hydroxy-1-(3-imidazol-1-yl-propyl)-4-(1H-indol-3-yl)-5-pyridin-4-yl-1,5-dihydro-pyrrol-2-one]
pIC50 (read-out: IC50): 7.40

O=C1C(O)=C(c2c[nH]c3ccccc23)C(c2cccs2)N1CCCn1ccnc1 (stereo not shown) [Compound 137, 3-Hydroxy-1-(3-imidazol-1-yl-propyl)-4-(1H-indol-3-yl)-5-thiophen-2-yl-1,5-dihydro-pyrrol-2-one]
pIC50 (read-out: IC50): 6.40

O=C1C(O)=C(c2c[nH]c3ccccc23)C(CO)N1CCCn1ccnc1 (stereo not shown) [Compound 138, 3-Hydroxy-5-hydroxymethyl-1-(3-imidazol-1-yl-propyl)-4-(1H-indol-3-yl)-1,5-dihydro-pyrrol-2-one]
pIC50 (read-out: IC50): 7.40

O=C1C(O)=C(c2c[nH]c3ccccc23)C(C2CC2)N1CCCn1ccnc1 (stereo not shown) [Compound 139, 5-Cyclopropyl-3-hydroxy-1-(3-imidazol-1-yl-propyl)-4-(1H-indol-3-yl)-1,5-dihydro-pyrrol-2-one]
pIC50 (read-out: IC50): 6.40

O=C1C(O)=C(c2c[nH]c3ccccc23)C(c2ccco2)N1CCCn1ccnc1 (stereo not shown) [Compound 140, 5-Furan-2-yl-3-hydroxy-1-(3-imidazol-1-yl-propyl)-4-(1H-indol-3-yl)-1,5-dihydro-pyrrol-2-one]
pIC50 (read-out: IC50): 6.40

CCCCC1C(c2c[nH]c3ccccc23)=C(O)C(=O)N1CCCn1ccnc1 (stereo not shown) [Compound 141, 5-Butyl-3-hydroxy-1-(3-imidazol-1-yl-propyl)-4-(1H-indol-3-yl)-1,5-dihydro-pyrrol-2-one]
pIC50 (read-out: IC50): 6.40

CCC1C(c2c[nH]c3ccccc23)=C(O)C(=O)N1CCCn1ccnc1 (stereo not shown) [Compound 142, 5-Ethyl-3-hydroxy-1-(3-imidazol-1-yl-propyl)-4-(1H-indol-3-yl)-1,5-dihydro-pyrrol-2-one]
pIC50 (read-out: IC50): 6.40

O=C1C(O)=C(c2c[nH]c3ccccc23)C(c2cccc(Cl)c2)N1CCCn1ccnc1 (stereo not shown) [Compound 143, 5-(3-Chloro-phenyl)-3-hydroxy-1-(3-imidazol-1-yl-propyl)-4-(1H-indol-3-yl)-1,5-dihydro-pyrrol-2-one]
pIC50 [1]: 6.87
pIC50 (read-out: IC50): 7.40
